Reference: PMC7144376, “Antiviral Effects of Novel 2-Benzoxyl-Phenylpyridine Derivatives” (Molecules, 2020)
Where two headings read alike, the source gives them in different places.

Tests used:
[1] = Cytotoxicity on uninfected HeLa cells (MTT, 48 h); assay type: cell-based; conditions: human, read-out: CC50 (reduce cell viability by 50%), ADV7 host cells
Procedure: (§1) Human laryngeal carcinoma cells (Hep-2) and human cervical carcinoma cells (HeLa) were maintained in DMEM (Gibco) supplemented with 10% fetal bovine serum (FBS; Gibco), 100 U/mL penicillin and streptomycin, and 2 mM L-glutamine.
(§2) The antiviral activities of compounds against CVB3 and ADV7 were determined by measuring their inhibition of virus-induced CPEs in acutely infected Hep-2 and HeLa cells, respectively. Confluent cell monolayers in 96-well plates were infected with 100 TCID50 of CVB3 or ADV7 for 1.5 h at 37 °C, inocula were aspirated, and the cells then were incubated with various concentrations of compounds at 37 °C, 5% CO2, for 48 h. CPEs were observed by microscopy and the viability of cells was determined using MTT assays. The concentrations of test compounds required to achieve 50% protection from virus-induced cytopathogenicity (EC50 values) were determined. Adverse effects of tested compounds on host cells were also assessed using the MTT method after exposing uninfected cells to various concentrations of test compounds for 48 h at 37 °C. The CC50 values of compounds were calculated using SPSS software and selectivity indices were the ratio of CC50:EC50. Each experiment was performed in triplicate and at least three times, independently.

CVB3 [2] = assay: Analysis of effective stage (prevention, mixture, treatment modes); assay type: cell-based, Coxsackievirus B3; conditions: Hep-2 cells, cell viability after 48 h; for inhibition of CVB3, compound added just before or during infection: prevention and mixture modes; for inhibitory effect against CVB3, compound added post infection: treatment mode
Procedure: The mechanisms by which W9, W13, and W15 inhibit CVB3 infection were further investigated by three different approaches, using ribavirin as a positive control. Antiviral effects against CVB3 were detected by measuring cell viability after 48 h of infection when cells were treated with compounds W9, W13, and W15 before, simultaneously, or after inoculation with CVB3 (100 TCID50).
Figure 3 Analysis of the modes of action of W9, W13, and W15 against CVB3. (a) Analysis of effective stage. The antiviral effects of test compounds against CVB3 were detected by measuring cell viability after 48 h of infection when cells were treated with W9, W13, or W15 before, simultaneously, or after inoculation with CVB3 (100 TCID50). (b) Analysis of the effects on CVB3 adsorption. Mock-, 120 μM W-9-, 160 μM W-13-, 160 μM W-15-, or 160 μM ribavirin-treated CVB3 (10^6 TCID50) was inoculated onto Hep-2 cells and adsorbed for 2 h. Infected cells were then harvested and subjected to virus titration, using the TCID50 method. (c) The effects of test compounds on CVB3 release from Hep-2 cells. Hep-2 cells infected with 100 TCID50 of CVB3 were incubated with test compounds for 12 h, then cells and culture supernatants (intra- and extracellular) analyzed for virus yield, separately or together. Mock, no infection; VC, virus control. Values represent the means ± SDs of three independent experiments. * p < 0.05; ** p < 0.01, compared with the virus control group.
To identify the step in the life cycle of CVB3 that was affected by the compounds, various concentrations of W9, W13, and W15 were added to Hep-2 cells, and the following three treatment procedures conducted: (i) To evaluate preventive effects (prevention mode of action), various concentrations of compounds were added to cells for 2 h at 37 °C, followed by washing with MM before virus infection; (ii) To analyze for inhibition of adsorption (mixture mode of action), a mixture of compound and virus was added to cells for 2 h at 37 °C, followed by washing with MM; (iii) To assess therapeutic effects (treatment mode of action), cells were first infected for 2 h at 37 °C, followed by washing with MM, addition of the compounds, and incubation for the duration of the experiment. For all procedures, cell viability was estimated after 48 h of infection, using MTT assays.

CVB3 [3] = assay: Direct inactivation of virions (viricidal test); assay type: cell-based, Coxsackievirus B3; conditions: 10^4 TCID50 CVB3, 2 h at 37 °C; 120 μM W-9, 160 μM W-13, W-15, ribavirin
Procedure: To determine whether these 2-benzoxyl-phenylpyridine derivatives inactivated virions directly, 10^4 TCID50 of CVB3 suspension was incubated with 120 μM W-9, 160 μM W-13, 160 μM W-15, or 160 μM ribavirin for 2 h at 37 °C. Subsequently, viral titers were measured by inoculating 100-fold dilutions of the mixtures, beyond the effective concentrations of the compounds, into the host cells. TCID50 values were calculated by the Reed–Muench method on day 2 post-inoculation.

[4] = Cytotoxicity on uninfected Hep-2 cells (MTT, 48 h); assay type: cell-based; conditions: human, read-out: CC50 (reduce cell viability by 50%), CVB3 host cells
Procedure: as §1, §2

CVB3 [5] = assay: Inhibition of CVB3-induced cytopathic effects in Hep-2 cells (MTT); assay type: cell-based, Coxsackievirus B3; conditions: for protection against CVB3-induced CPEs (microscopy): 120 μM W-9, 160 μM W-13, 160 μM W-15; for EC50 / inhibition at 160 µM: Enterovirus B; for EC50: 100 TCID50 CVB3, 48 h, MTT, read-out: EC50 (50% protection from virus-induced cytopathogenicity), CVB3; for inhibition at 160 µM: CVB3, at 160 μM, read-out: inhibition of CVB3 infections
Procedure: (§3) Figure 1 Antiviral activities of novel 2-benzoxyl-phenylpyridine derivatives against CVB3 and ADV7. […] Hep-2 or HeLa cells were infected with 100 TCID50 of CVB3 or ADV7 for 1.5 h at 37 °C. Then, the inocula were aspirated and the cells were incubated with various concentrations of test compounds for 48 h. Cell viability was determined using the MTT assay. (b) Images showing the morphology of Hep-2 and HeLa cells treated with 120 μM W-9, 160 μM W-13, or 160 μM W-15 (magnification, 20×).
as §2

ADV7 = assay: Inhibition of ADV7-induced cytopathic effects in HeLa cells (MTT); assay type: cell-based, adenovirus type 7; conditions: for protection against ADV7-induced CPEs (microscopy): 120 μM W-9, 160 μM W-13, 160 μM W-15; for EC50 / inhibition at 160 µM: Human mastadenovirus B; for EC50: 100 TCID50 ADV7, 48 h, MTT, read-out: EC50 (50% protection from virus-induced cytopathogenicity), ADV7; for inhibition at 160 µM: read-out: inhibition of ADV7 infections
Procedure: as §3, §2

Compound | CC50 at 48 h [1] [µM] | inhibition of CVB3, compound added just before or during infection (CVB3 [2]) | inhibitory effect against CVB3, compound added post infection (CVB3 [2]) | virus titer after incubating CVB3 suspension with compound (viricidal activity) (CVB3 [3]) | CC50 at 48 h [4] [µM] | SI (CC50/EC50), CVB3 (CVB3 [5]) | inhibitory activity against CVB3 infection (in words) (CVB3 [5]) | protection against CVB3-induced CPEs (microscopy) (CVB3 [5]) | EC50 (CVB3 [5]) [µM] | inhibition at 160 µM (CVB3 [5]) [%] | SI (CC50/EC50), ADV7 (ADV7) | inhibitory activity against ADV7 infection (in words) (ADV7) | protection against ADV7-induced CPEs (microscopy) (ADV7) | EC50 (ADV7) [µM] | inhibition at 160 µM (ADV7) [%] | maximum inhibition of CVB3 (CVB3 [5]) [%] | maximum inhibition of ADV7 (ADV7) [%] | SI (CC50/EC50), ADV7 (ADV7; listed as W-13)
CC(=O)Oc1ccc(-c2ccccn2)c(OC(=O)c2ccccc2)c1 [W15] | 795 ± 33.8 | no significant inhibition | most powerful inhibitory effects | No significant difference | 451 ± 32.4 | 6.5 | significant inhibitory activities | almost complete protection | 69.7 ± 15 | 90 | 12.2 | significant inhibitory activities | almost complete protection | 65.2 ± 21.6 | 89.4 | – | – | –
O=C(Oc1cc(Cl)ccc1-c1ccccn1)c1ccccc1 [W9] | 265 ± 28.1 | no significant inhibition | most powerful inhibitory effects | No significant difference | 148 ± 11.6 | 6.0 | significant inhibitory activities | almost complete protection | 24.6 ± 8.7 | 73 | 9.8 | significant inhibitory activities | almost complete protection | 27.1 ± 9 | 81.4 | – | – | –
NC(=O)c1ncn([C@@H]2O[C@H](CO)[C@@H](O)[C@H]2O)n1 [Ribavirin, reference compound] | 807 | – | – | No significant difference | 836 | 8.3 | – | – | 101 | – | 7.1 | – | – | 114 | – | 63.0 | 72.4 | –
Cc1ccc(OC(=O)C(C)(C)C)c(-c2ccccn2)c1 [W13] | > 372 | no significant inhibition | most powerful inhibitory effects | No significant difference | 424 ± 26.8 | 10.2 | significant inhibitory activities | almost complete protection | 41.6 ± 11.5 | 92.8 | >10 | significant inhibitory activities | almost complete protection | 36.4 ± 16.4 | 83.9 | – | – | > 10
